This note sets out measurements from US20020133009A1, “Method for opening potassium channels” (priority 2001, published 2002).

The target of assay [1] is T1, maxi-K+ channels (Homo sapiens, UniProt Q12791).
T1 construct: endogenous in cells; host or cells: cultured human trabecular meshwork (TM) cells
The experiment in a line: Patch clamp whole-cell current measurements in cultured human trabecular meshwork (TM) cells. Format: cell-based. How it is done: (§1) Patch clamp experiments of cultured human and bovine trabecular meshwork (TM) cells are performed. Nystatin in a pipette is used to obtain perforated patches. Whole-cell current measurements in the cells are performed. Voltages from −80mV to +120mV with 200-msec duration each are applied through the patch pipette, starting from a holding potential of −40mV. After each step, the voltage is returned to a holding potential of […] for 200-msec. Currents are continuously sampled at 100 Hz throughout the duration of the protocol.

The target in assay [2] is T2, maxi-K+ channels (Bos taurus, UniProt Q28204).
T2 construct: endogenous in cells; host or cells: cultured bovine trabecular meshwork (TM) cells
T2 sequence (Q28204 whole entry): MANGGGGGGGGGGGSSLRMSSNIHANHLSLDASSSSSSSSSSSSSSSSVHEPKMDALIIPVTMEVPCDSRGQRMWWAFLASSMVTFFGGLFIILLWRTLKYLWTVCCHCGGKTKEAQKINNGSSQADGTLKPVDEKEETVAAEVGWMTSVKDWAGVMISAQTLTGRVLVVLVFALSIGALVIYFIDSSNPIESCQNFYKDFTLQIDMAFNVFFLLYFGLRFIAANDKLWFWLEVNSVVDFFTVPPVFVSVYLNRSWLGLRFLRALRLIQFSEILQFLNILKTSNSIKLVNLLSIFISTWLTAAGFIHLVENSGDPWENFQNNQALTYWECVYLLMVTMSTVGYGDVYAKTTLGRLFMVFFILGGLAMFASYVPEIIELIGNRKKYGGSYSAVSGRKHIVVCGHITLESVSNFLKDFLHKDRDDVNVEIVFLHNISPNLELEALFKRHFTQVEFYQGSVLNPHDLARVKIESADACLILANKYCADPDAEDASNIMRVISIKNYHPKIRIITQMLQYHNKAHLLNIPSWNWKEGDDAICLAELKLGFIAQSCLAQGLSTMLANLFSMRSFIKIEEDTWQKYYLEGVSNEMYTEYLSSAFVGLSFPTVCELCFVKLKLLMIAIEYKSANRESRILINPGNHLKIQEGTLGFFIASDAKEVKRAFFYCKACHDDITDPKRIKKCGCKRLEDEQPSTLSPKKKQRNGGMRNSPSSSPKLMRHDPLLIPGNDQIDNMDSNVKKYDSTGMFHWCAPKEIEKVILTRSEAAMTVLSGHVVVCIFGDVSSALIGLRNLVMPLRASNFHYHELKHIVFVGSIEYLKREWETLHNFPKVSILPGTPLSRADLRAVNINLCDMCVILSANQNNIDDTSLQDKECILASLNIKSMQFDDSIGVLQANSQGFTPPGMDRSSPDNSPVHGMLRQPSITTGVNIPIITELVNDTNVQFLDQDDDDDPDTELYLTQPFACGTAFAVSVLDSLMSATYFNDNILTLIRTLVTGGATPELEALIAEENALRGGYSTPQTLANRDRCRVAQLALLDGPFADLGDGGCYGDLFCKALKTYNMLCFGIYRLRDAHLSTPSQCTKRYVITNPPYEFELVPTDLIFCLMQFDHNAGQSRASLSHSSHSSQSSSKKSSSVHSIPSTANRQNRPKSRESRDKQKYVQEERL
The experiment in a line: Patch clamp whole-cell current measurements in cultured bovine trabecular meshwork (TM) cells. The assay is classed as cell-based. How it is done:
as §1
A general note: Patch clamp records ionic current or voltage across a cell membrane.

T1 sequence (Q12791 whole entry): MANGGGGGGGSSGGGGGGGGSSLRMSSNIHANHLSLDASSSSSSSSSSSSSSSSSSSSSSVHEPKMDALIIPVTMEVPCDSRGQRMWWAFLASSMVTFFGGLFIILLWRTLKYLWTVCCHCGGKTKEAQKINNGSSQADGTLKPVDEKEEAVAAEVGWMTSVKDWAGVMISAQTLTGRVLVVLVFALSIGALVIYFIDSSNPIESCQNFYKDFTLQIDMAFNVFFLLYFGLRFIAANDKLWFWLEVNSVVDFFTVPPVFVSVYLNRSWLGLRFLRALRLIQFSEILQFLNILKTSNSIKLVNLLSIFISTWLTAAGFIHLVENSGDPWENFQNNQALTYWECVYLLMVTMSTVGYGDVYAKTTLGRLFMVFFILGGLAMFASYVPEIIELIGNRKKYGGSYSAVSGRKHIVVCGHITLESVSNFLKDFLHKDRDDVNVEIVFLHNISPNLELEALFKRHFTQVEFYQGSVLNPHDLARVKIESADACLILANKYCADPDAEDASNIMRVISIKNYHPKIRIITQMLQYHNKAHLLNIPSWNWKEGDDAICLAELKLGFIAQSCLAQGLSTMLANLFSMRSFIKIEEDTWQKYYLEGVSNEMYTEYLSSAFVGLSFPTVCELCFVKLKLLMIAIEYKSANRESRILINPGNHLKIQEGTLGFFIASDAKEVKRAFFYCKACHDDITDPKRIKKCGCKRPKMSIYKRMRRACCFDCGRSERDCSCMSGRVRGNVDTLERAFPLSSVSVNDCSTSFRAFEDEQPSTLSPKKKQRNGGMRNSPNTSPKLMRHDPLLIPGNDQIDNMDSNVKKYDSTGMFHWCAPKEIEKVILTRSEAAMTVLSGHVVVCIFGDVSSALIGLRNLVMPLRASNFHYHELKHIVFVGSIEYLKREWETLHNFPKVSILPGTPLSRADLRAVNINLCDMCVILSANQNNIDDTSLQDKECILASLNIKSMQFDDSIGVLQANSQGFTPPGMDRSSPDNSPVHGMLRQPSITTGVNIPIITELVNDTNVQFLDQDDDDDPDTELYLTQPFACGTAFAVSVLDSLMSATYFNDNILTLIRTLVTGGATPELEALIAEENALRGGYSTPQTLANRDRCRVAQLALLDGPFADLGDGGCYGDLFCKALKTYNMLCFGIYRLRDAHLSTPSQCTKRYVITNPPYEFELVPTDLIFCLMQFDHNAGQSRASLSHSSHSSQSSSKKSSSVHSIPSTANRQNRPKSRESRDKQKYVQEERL

In the case of `CCCCCCCC(=O)CC[C@@H]1[C@@H](C/C=C\CCCC(=O)OC(C)C)[C@@H](O)C[C@H]1O` [unoprostone isopropyl, [1R-[1α(Z),2β,3a,5a]]-7-[3,5-dihydroxy-2-(3-oxodecyl)cyclopentyl]-5-heptenoic acid isopropyl ester], the “overall current of the cells” value on maxi-K+ channels [1] (human TM cells incubated in either acetylcholine or endothelin) and at maxi-K+ channels [2] (bovine TM cells incubated in either acetylcholine or endothelin) was “stimulated the overall current” throughout. The overall current result at maxi-K+ channels [1] (human trabecular meshwork cells incubated in acetylcholine) was “stimulates the overall current”; on maxi-K+ channels [1] (human trabecular meshwork cells incubated in the presence of endothelin) it was “induces an increase in the overall current”. For the same compound, the “total current, % of the control” value at maxi-K+ channels [2] (bovine trabecular meshwork cells incubated in acetylcholine, 10^-5 M unoprostone isopropyl, p<0.01) is “approximately 180%”. Moreover, the “maxi-K+ channel opening” value on maxi-K+ channels [2] (conclusion from iberiotoxin block, TM cells, species not given) is reported as “opens maxi-K+ channels”.
“iberiotoxin: highly specific inhibitor of maxi-K+ channels (QFTDVDCSVSKECWSVCKDLFGVDRGKCMGKKCRCYQ; UniProt P24663 1-37, looked up) [reference compound]”: in the assay with maxi-K+ channels [2] (TM cells, species not given), the “effect on unoprostone isopropyl-induced current” value is recorded as “totally reduced”. Further, the “total current inhibited by iberiotoxin, % of the control” value with maxi-K+ channels [2] (bovine trabecular meshwork cells incubated in acetylcholine, after unoprostone isopropyl stimulation) is “approximately 40%”.
